Laboratory results: ChEMBL document CHEMBL1777766, “Design, synthesis and in vitro antibacterial activity of 7-(4-alkoxyimino-3-aminomethylpiperidin-1-yl)fluoroquinolone derivatives” (Bioorg Med Chem Lett, 2011)
Values after ≈ are worked out from the molar mass of the structure shown.

What was measured:
[1] = tested on: Staphylococcus aureus; test: Antibacterial activity against methicillin-sensitive Staphylococcus aureus 08-49; assay type: functional
[2] = tested on: Staphylococcus aureus; test: Antibacterial activity against Staphylococcus aureus ATCC 13709; assay type: functional
[3] = tested on: Staphylococcus aureus; test: Antibacterial activity against methicillin-resistant Staphylococcus aureus 08-52; assay type: functional
[4] = tested on: Staphylococcus epidermidis; test: Antibacterial activity against Staphylococcus epidermidis ATCC 12228; assay type: functional
[5] = tested on: Staphylococcus epidermidis; test: Antibacterial activity against methicillin-sensitive Staphylococcus epidermidis 08-17; assay type: functional
[6] = tested on: Staphylococcus epidermidis; test: Antibacterial activity against methicillin-resistant Staphylococcus epidermidis 08-18; assay type: functional
[7] = tested on: Streptococcus pneumoniae; test: Antibacterial activity against Streptococcus pneumoniae ATCC 6301; assay type: functional
[8] = tested on: Streptococcus pneumoniae; test: Antibacterial activity against penicillin-resistant Streptococcus pneumoniae 08-2; assay type: functional
[9] = tested on: Enterococcus faecalis; test: Antibacterial activity against Enterococcus faecalis ATCC 51299; assay type: functional
[10] = tested on: Enterococcus faecalis; test: Antibacterial activity against vancomycin-resistant Enterococcus faecalis EFL1004; assay type: functional
[11] = tested on: Streptococcus pyogenes; test: Antibacterial activity against Streptococcus pyogenes 556; assay type: functional
[12] = tested on: Escherichia coli; test: Antibacterial activity against Escherichia coli ATCC 25922; assay type: functional
[13] = tested on: Escherichia coli; test: Antibacterial activity against Extended spectrum beta-lactamase producing Escherichia coli 08-5; assay type: functional
[14] = tested on: Klebsiella pneumoniae; test: Antibacterial activity against Klebsiella pneumoniae ATCC 700603; assay type: functional
[15] = tested on: Pseudomonas aeruginosa; test: Antibacterial activity against Pseudomonas aeruginosa 17; assay type: functional
[16] = tested on: Shigella sonnei; test: Antibacterial activity against Shigella sonnei 51592; assay type: functional
[17] = tested on: Salmonella typhi; test: Antibacterial activity against Bacillus typhi 50035; assay type: functional, Salmonella enterica subsp. enterica serovar Typhi; conditions: Salmonella enterica
[18] = tested on: Enterobacter cloacae; test: Antibacterial activity against Enterobacter cloacae 45301; assay type: functional
[19] = tested on: Acinetobacter calcoaceticus; test: Antibacterial activity against Acinetobacter calcoaceticus 25001; assay type: functional
[20] = tested on: Klebsiella aerogenes; test: Antibacterial activity against Enterobacter aerogenes 45102; assay type: functional
[21] = tested on: Serratia marcescens; test: Antibacterial activity against Serratia marcescens 41002; assay type: functional
[22] = tested on: Morganella morganii; test: Antibacterial activity against Morganella morganii 49086; assay type: functional
[23] = tested on: Providencia rettgeri; test: Antibacterial activity against Proteus rettgeri 49006; assay type: functional
[24] = tested on: Proteus vulgaris; test: Antibacterial activity against Proteus vulgaris 56; assay type: functional
[25] = Cytotoxicity against african green monkey Vero cells after 24 hrs; assay type: cell-based; conditions: chlorocebus sabaeus

Row | Structure (SMILES) | MIC [1] | MIC [2] | MIC [3] | MIC [4] | MIC [5] | MIC [6] | MIC [7] | MIC [8] | MIC [9] | MIC [10] | MIC [11] | MIC [12] | MIC [13] | MIC [14] | MIC [15] | MIC [16] | MIC [17] | MIC [18] | MIC [19] | MIC [20] | other results
1 | CCO/N=C1\CCN(c2c(F)cc3c(=O)c(C(=O)O)cn(C4CC4)c3c2OC)CC1CN (racemic) | 0.25 µg/mL (≈ 0.56 µM) | 1 µg/mL (≈ 2.24 µM) | 2 µg/mL (≈ 4.48 µM) | 2 µg/mL (≈ 4.48 µM) | 4 µg/mL (≈ 8.96 µM) | 2 µg/mL (≈ 4.48 µM) | 8 µg/mL (≈ 17.9 µM) | 4 µg/mL (≈ 8.96 µM) | 4 µg/mL (≈ 8.96 µM) | 8 µg/mL (≈ 17.9 µM) | 8 µg/mL (≈ 17.9 µM) | 4 µg/mL (≈ 8.96 µM) | > 128 µg/mL | 128 µg/mL (≈ 287 µM) | 32 µg/mL (≈ 71.7 µM) | 8 µg/mL (≈ 17.9 µM) | 4 µg/mL (≈ 8.96 µM) | > 128 µg/mL | 8 µg/mL (≈ 17.9 µM) | 16 µg/mL (≈ 35.8 µM) | MIC [21]: 32 µg/mL (≈ 71.7 µM); MIC [22]: 16 µg/mL (≈ 35.8 µM); MIC [23]: 32 µg/mL (≈ 71.7 µM); MIC [24]: 32 µg/mL (≈ 71.7 µM); CC50 at 24 h [25]: 173 µg/mL (≈ 388 µM)
2 | CO/N=C1\CN(c2nc3c(cc2F)c(=O)c(C(=O)O)cn3C2CC2)CC1CN (centres undefined) [GEMIFLOXACIN] | ≤ 0.03 µg/mL | ≤ 0.03 µg/mL | 0.5 µg/mL (≈ 1.28 µM) | 0.06 µg/mL (≈ 0.154 µM) | 0.06 µg/mL (≈ 0.154 µM) | ≤ 0.03 µg/mL | 0.5 µg/mL (≈ 1.28 µM) | ≤ 0.03 µg/mL | 0.06 µg/mL (≈ 0.154 µM) | 0.5 µg/mL (≈ 1.28 µM) | 0.125 µg/mL (≈ 0.321 µM) | ≤ 0.03 µg/mL | 32 µg/mL (≈ 82.2 µM) | 0.5 µg/mL (≈ 1.28 µM) | 32 µg/mL (≈ 82.2 µM) | ≤ 0.03 µg/mL | ≤ 0.03 µg/mL | ≤ 0.03 µg/mL | 0.125 µg/mL (≈ 0.321 µM) | ≤ 0.03 µg/mL | MIC [21]: 0.125 µg/mL (≈ 0.321 µM); MIC [22]: 0.06 µg/mL (≈ 0.154 µM); MIC [23]: 0.06 µg/mL (≈ 0.154 µM); MIC [24]: ≤ 0.03 µg/mL
3 | CCO/N=C1\CCN(c2c(F)cc3c(=O)c(C(=O)O)cn(CC)c3c2F)CC1CN (racemic) | 4 µg/mL (≈ 9.47 µM) | 4 µg/mL (≈ 9.47 µM) | 8 µg/mL (≈ 18.9 µM) | 8 µg/mL (≈ 18.9 µM) | 32 µg/mL (≈ 75.8 µM) | 8 µg/mL (≈ 18.9 µM) | 64 µg/mL (≈ 152 µM) | 32 µg/mL (≈ 75.8 µM) | 16 µg/mL (≈ 37.9 µM) | 32 µg/mL (≈ 75.8 µM) | 64 µg/mL (≈ 152 µM) | 8 µg/mL (≈ 18.9 µM) | > 128 µg/mL | > 128 µg/mL | 128 µg/mL (≈ 303 µM) | 128 µg/mL (≈ 303 µM) | 8 µg/mL (≈ 18.9 µM) | > 128 µg/mL | 128 µg/mL (≈ 303 µM) | 16 µg/mL (≈ 37.9 µM) | MIC [21]: 16 µg/mL (≈ 37.9 µM); MIC [22]: 16 µg/mL (≈ 37.9 µM); MIC [23]: 32 µg/mL (≈ 75.8 µM); MIC [24]: 16 µg/mL (≈ 37.9 µM); CC50 at 24 h [25]: 410 µg/mL (≈ 969 µM)
